These results are taken from publication PMC5075098, “Preclinical Evaluation of the Stability, Safety, and Efficacy of CD101, a Novel Echinocandin” (Antimicrobial Agents and Chemotherapy, 2016).

Where two headings read alike, the source gives them in different places. Starred links: 1 amine or outer side, 2 acyl side, 3 side chain; linkers in the order of their positions; H or OH if unused. Positions of bridges follow the written chain, without caps; N, C: chain ends. Non-standard residues stand in square brackets, D forms with d. Residues, ends and D or L forms follow the SMILES beside them. *: point of attachment. Orn(4R-OH,5R-OCH2CH2NMe3+) = C[N+](C)(C)CCO[C@@H](N[*:3])[C@H](O)C[C@H](N[*:1])C(=O)[*:2]; pTerphenylCO(4''-OnC5H11) = CCCCCOc1ccc(-c2ccc(-c3ccc(C(=O)*)cc3)cc2)cc1; hTyr(3S-OH,4S-OH) = N[C@H](C(=O)O)[C@H](O)[C@@H](O)c1ccc(O)cc1; Pro(3S-OH,4S-Me) = C[C@H]1CN[C@H](C(=O)O)[C@H]1O; Hyp = O=C(O)[C@@H]1C[C@@H](O)CN1

Series [1] is described as follows: Plasma protein binding, rapid equilibrium dialysis. The series is classed as in vitro ADME, cynomolgus monkey. To be noted: monkey, pH 7.4, read-out: protein bound (converted). The protocol:
(§1) Rapid equilibrium dialysis (RED) ([16]) was used to determine cross-species protein binding of CD101 in CD-1 mouse, Sprague-Dawley rat, cynomolgus monkey, chimpanzee, and human plasma. […] Dialysis buffer (350 μl of phosphate-buffered saline [PBS], pH 7.4, with 100 mM sodium phosphate) was loaded into the buffer (left) channel of the RED device. The device was agitated gently at 37°C for 4 h. Samples were placed into a new 96-well plate for matrix matching (25 μl of plasma added to the dialysis buffer aliquots or 25 μl of dialysis buffer to the plasma aliquots). […] Following centrifugation, 200 μl of the supernatant was transferred to a clean 96-well plate and evaporated to dryness at 37°C under nitrogen. Samples were reconstituted in 100 μl of 1:1 acetonitrile-water prior to analysis by LC-MS/MS. The percentage bound was calculated as the difference between 100% and the percentage free (the ratio of the concentration in supernatant to the concentration in plasma).
(In general: In equilibrium dialysis free small molecules cross a membrane that holds back macromolecules.)

The nature of series [2]: Inhibition of recombinant CYP450 enzymes. To be noted: recombinant CYP450 enzymes 1A2, 2B6, 2C8, 2C9, 2C19, 2D6, 3A4. It counts as in vitro ADME.
The nature of series [3]: 2-week repeat-dose toxicity and hepatotoxicity screening. It counts as in vivo, Sprague-Dawley rats. The protocol: Dosing solutions were prepared in a vehicle comprising 5% mannitol containing 2.5% polysorbate 80 (Tween 80) in 0.3% acetic acid.
Animals were randomly assigned to dose groups and stratified by weight to achieve similar group mean body weights (males, 255 to 318 g; females, 192 to 215 g). Blood, urine, and liver samples (excised and preserved in 10% neutral buffered formalin) were obtained on day 15. Plasma liver enzyme levels were assessed. Liver tissues were processed to paraffin blocks and prepared for slides. Slides were stained with hematoxylin and eosin. Hematology data were collected using the Advia 120 hematology analyzer. Coagulation data were collected using the Diagnostica STA compact coagulation analyzer. Clinical chemistry data were collected using the AU400 chemistry analyzer. Qualitative and quantitative urinalysis was recorded using iRICELL 1500 UA analyzer. Clinical effects were assessed for determination of the maximum tolerated dose (MTD).
Statistical evaluations were performed on in-life and clinical pathology numerical data to determine statistical significance following a decision tree. First, the homogeneity of the data was determined by Bartlett's test. If the data were homogeneous, a one-way analysis of variance was performed to assess statistical significance. If statistically significant differences between the means were found, Dunnett's test was used to determine the degree of significance from the control means (P < 0.05, P < 0.01, and P < 0.001). If the data were nonhomogeneous, the Kruskal-Wallis nonparametric analysis was performed to assess statistical significance. If statistically significant differences between the means were found (P < 0.05, P < 0.01, and P < 0.001), the Mann-Whitney U test was used to determine the degree of significance from the control means (P < 0.05, P < 0.01, and P < 0.001).

A short description of series [4]: Plasma protein binding, rapid equilibrium dialysis. To be noted: mouse, pH 7.4, read-out: protein bound (converted). It counts as in vitro ADME, CD-1 mouse. The protocol:
as §1

For series [5] the following is noted: after 44 h; cited from earlier work. An excerpt: CD101, a novel echinocandin being developed as a high-exposure, once-weekly intravenous (i.v.) formulation for the treatment and prevention of systemic fungal infections, was designed to be chemically and metabolically stable to avoid hepatotoxicity while retaining the antifungal activity of an echinocandin.

Another series has as its system C. albicans R303. Kind of series: Neutropenic mouse model of C. albicans infection, kidney colony counts. To be noted: for log reduction in CFU per gram relative to vehicle: 24, 48, 72 h.
Series [6] has as its system A. fumigatus (ATCC 13073). Briefly: MEC/MIC, CLSI broth microdilution. To be noted: 24 h at 35°C, rounded/compact hyphal morphology. Background: Dilution methods test growth across graded concentrations, often in twofold steps.
Method: Enumeration of MIC and MEC assay inoculum viable counts was performed by plating aliquots of the starting assay inoculum on Sabouraud dextrose agar.
A short description of series [7]: CYP450 inhibition in human liver microsomes. As to conditions: pH 7.4, IC50, human liver microsomes, 0.03 to 30 μM, 5 min at 37°C, pH 7.4, LC-MS/MS, duplicate. (In general: Liver microsomes are a subcellular fraction often used to study metabolism.)
Method: The final DMSO content in the reaction mixture was equal in all solutions used within an assay and was less than 0.2%. […] After incubation for 5 min at 37°C, the reactions were terminated by addition of methanol-containing internal standard (propranolol) for analytical quantification. The quenched samples were incubated at 4°C for 10 min and centrifuged at 4°C for 10 min.
Series [8] in a line: Plasma protein binding, rapid equilibrium dialysis. To be noted: pH 7.4, read-out: protein bound (converted). The series is classed as in vitro ADME, chimpanzee. The protocol:
as §1

The mark [9] stands for this setting: CD101 2, 6, 20 mg/kg/day i.v. 14 days, rats.

Method for C. albicans R303: Immunosuppression was induced by two intraperitoneal (i.p.) injections of cyclophosphamide at 150 mg/kg 4 days before and 100 mg/kg 1 day before inoculation. […] The animals in the fluconazole group were sacrificed 48 h after infection.

As a reminder, the IC50 is the concentration that gives 50% inhibition. `CCCCCOc1ccc(-c2ccc(-c3ccc(C(=O)N[C@H]4C[C@@H](O)[C@@H](OCC[N+](C)(C)C)NC(=O)[C@@H]5[C@@H](O)[C@@H](C)CN5C(=O)[C@H]([C@@H](C)O)NC(=O)[C@H]([C@H](O)[C@@H](O)c5ccc(O)cc5)NC(=O)[C@@H]5C[C@@H](O)CN5C(=O)[C@H]([C@@H](C)O)NC4=O)cc3)cc2)cc1` [CD101] ({pTerphenylCO(4''-OnC5H11)}-[Orn(4R-OH,5R-OCH2CH2NMe3+)]T[Hyp][hTyr(3S-OH,4S-OH)]T[Pro(3S-OH,4S-Me)]; lactam 1-C): the values for the fraction unbound in series [1], in series [4] and in series [8] were 0.011, 0.009 and 0.012, respectively. Further, the results for the 50% inhibitory concentration (IC50) in [2], in [7] (midazolam substrate (2.5 μM)) and in series [7] (testosterone substrate (50 μM)) were > 10 µM, 29 µM and > 30 µM, respectively. Moreover, the “repeat-dose systemic or target organ toxicity” value in [3] (14-day i.v. infusion, rats, CD101 20 mg/kg/day, anidulafungin 40 mg/kg/day (comparable exposure)) is “did not appear to elicit any evidence of repeat-dose systemic or target organ toxicity”. Further, the early deaths entry in series [3] (setting [9]) is listed as “no early deaths”. In [3] (setting [9]), the “effects on body weight, hematology, coagulation, or urinalysis” value is given as “did not exhibit effects on body weight, hematology, coagulation, or urinalysis”. Also, the increases in neutrophils result in series [3] (CD101 2, 6, 20 mg/kg/day i.v. 14 days, rats, P ≤ 0.01, within normal limits, considered incidental) is recorded as “up to 31%”. The “increases in reticulocytes, hemoglobin, hematocrit, activated partial thromboplastin time, BUN, sodium, total bilirubin, total protein, chloride, and globulin” value in series [3] (CD101 2, 6, 20 mg/kg/day i.v. 14 days, rats, P ≤ 0.05, within normal limits, considered incidental) was “less than 20%”. The “microscopic changes in the liver” value in series [3] (day 15, H&E, CD101 2, 6, or 20 mg/kg/day, anidulafungin 40 mg/kg/day (some of the females)) was “no microscopic changes”. Besides, the “% remaining in human plasma” value in [5] is 93%. Besides, the “log reduction in CFU per gram relative to vehicle” value with C. albicans R303 (0.2 mg/kg single i.v. dose) is reported as “less than 1 log”; in the series with C. albicans R303 (0.4 mg/kg single i.v. dose), “up to 1.7 log”; with C. albicans R303 (0.6 mg/kg single i.v. dose), “up to 2.9 log”; with C. albicans R303 (0.8 mg/kg single i.v. dose) it was “up to 4.7 log”. Also, the “antimicrobial effect (≥99%, 2-log reduction in CFU per gram)” value in the series on C. albicans R303 (CD101 0.6 and 0.8 mg/kg i.v., at 24, 48, and 72 h) was “significant”. This compound displayed an MEC in series [6] of 0.004 µg/mL.
